# Experimental data reported in paper PMC10439952, “JT002, a small molecule inhibitor of the NLRP3 inflammasome for the treatment of autoinflammatory disorders” (Scientific Reports, 2023).
# pIC50: −log10 of the molar value.
# How the values were obtained:
# NLRC4 inflammasome = molecular target: T1, NLRC4 inflammasome (Mus musculus, UniProt Q3UP24); test: IL-1β production in mouse BMDMs after NLRC4 activation (LPS + flagellin); type: cell-based; conditions: mBMDMs, concentrations up to 10 µM
# T1 construct: host or cells: mouse BMDMs, LPS + transfected flagellin
# Description: (§1) Cell viability was determined by addition of an equal volume of CellTiter-Glo® 2.0 reagent (Promega) to the remaining cells/supernatant in each well. Intracellular Caspase-1 activity was measured using the Caspase-Glo® assay (Promega) according to the manufacturer’s instructions. The biochemical capsase-1 assay was conducted at Reaction Biology Corporation (Malvern, USA). Human IL-1β, IL-1α, and TNFα and mouse IL-1β were measured in cell culture supernatants using homogeneous time resolved fluorescence assay kits (HTRF, Cisbio, Codolet, France). Human IL-18 was measured in cell culture supernatants using an ELISA kit (R&D Systems, Minneapolis, MN, USA). Plasma IL-1β concentrations were determined by Quantikine® ELISA (R&D Systems, Minneapolis, MN).
# 4H). MS: m/z 433.1 (M+H+). […]
# flagellin, prepared in Opt iMEM and combined with Lipofectamine 2000. […] After priming Nlrp3 -/- mBMDMs with 100 ng/mL of LPS for 3- 5 h, cells were exposed to 100 ng/mL L18- MDP and incubated overnight.At the end of the incubation period of the assays above, plates were briefly centri fuged and hal f of the cell culture supern atant remo ved and either analysed i mmediately or stored at - 80°C for subs equent cytokine […]
# [1] = system: intracellular caspase-1 activity; test: Intracellular caspase-1 activity in human PBMCs stimulated with LPS + nigericin (Caspase-Glo); type: cell-based; conditions: Human PBMC, read-out: Geo Av IC50, Caspase-1
# Description: as §1
# 4H). MS: m/z 433.1 (M+H+).
# Inflammasome activation.PBMCs (iXCells Biotechnologies, San Diego, USA) were thawed the day before the assay and seeded in complete medium (RPMI 1640 medium with GlutaMAX, supplemented with an additional 2.5 g/L D-glucose, 10% Fet al Bovine Serum, 100 mM Sodium Pyruvate, 1% Penicillin/Streptomycin, 10 mM HEPES and 0.05 mM β -mercaptoethanol) in polystyrene V-bottom 96-well plates at 5x10^4 cells per well and incubated overnight at 37°C with 5% CO 2. The next day, PBMC media was r eplaced with serum-fr ee media p rior t o the assay. […]
# T1 sequence (Q3UP24 whole entry): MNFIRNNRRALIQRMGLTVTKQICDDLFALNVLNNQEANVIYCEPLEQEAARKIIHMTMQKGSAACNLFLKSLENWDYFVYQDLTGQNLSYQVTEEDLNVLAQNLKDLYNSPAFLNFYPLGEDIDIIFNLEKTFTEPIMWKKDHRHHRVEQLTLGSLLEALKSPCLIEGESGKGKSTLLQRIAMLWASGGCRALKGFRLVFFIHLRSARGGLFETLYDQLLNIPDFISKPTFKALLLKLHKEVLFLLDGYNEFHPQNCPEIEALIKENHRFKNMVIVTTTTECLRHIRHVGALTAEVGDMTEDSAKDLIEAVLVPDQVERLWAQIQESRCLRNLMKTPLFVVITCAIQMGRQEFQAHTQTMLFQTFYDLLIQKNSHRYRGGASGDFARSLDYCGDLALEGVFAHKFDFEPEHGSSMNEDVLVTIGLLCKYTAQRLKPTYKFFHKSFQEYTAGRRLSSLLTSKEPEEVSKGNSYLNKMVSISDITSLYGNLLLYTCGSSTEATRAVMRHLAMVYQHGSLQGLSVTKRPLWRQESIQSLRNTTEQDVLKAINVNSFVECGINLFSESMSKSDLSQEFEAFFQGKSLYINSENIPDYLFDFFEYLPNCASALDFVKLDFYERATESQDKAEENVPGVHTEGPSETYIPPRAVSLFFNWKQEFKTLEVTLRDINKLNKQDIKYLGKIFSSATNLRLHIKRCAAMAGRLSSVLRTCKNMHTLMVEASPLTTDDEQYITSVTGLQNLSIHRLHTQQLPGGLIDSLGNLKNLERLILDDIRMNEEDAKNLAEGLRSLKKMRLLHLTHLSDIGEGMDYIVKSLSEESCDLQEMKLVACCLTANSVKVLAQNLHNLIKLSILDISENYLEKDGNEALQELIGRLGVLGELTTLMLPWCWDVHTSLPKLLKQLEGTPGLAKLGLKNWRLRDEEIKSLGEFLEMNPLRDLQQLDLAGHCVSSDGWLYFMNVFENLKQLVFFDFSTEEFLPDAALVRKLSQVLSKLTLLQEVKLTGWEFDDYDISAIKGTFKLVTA
structure (smiles),measurement,setting,value
CO[C@@H]1COc2c(S(=O)(=O)NC(=O)Nc3c4c(cc5c3CCC5)CCC4)cnn2C1 [JT002],inhibition of IL-1β production after NLRC4 activation,NLRC4 inflammasome,no inhibition of IL-1β production
same,pIC50,[1],8.10
